Where two headings read alike, the source gives them in different places.
Experiments:
FaDu = assay: Growth inhibition of FaDu human squamous carcinoma cell line; type: cell-based
L. casei DHFR = L. casei DHFR (Lacticaseibacillus casei, UniProt P00381); assay: Inhibition of Lactobacillus casei DHFR; type: biochemical
CCRF-CEM DHFR = biological target: T1, CCRF-CEM DHFR (Homo sapiens, UniProt P00374); assay: Inhibition of DHFR isolated from human CCRF-CEM leukemic cells; type: biochemical; conditions: Table 17
T1 construct: DHFR isolated from human CCRF-CEM leukemic cells; endogenous in cells; host or cells: CCRF-CEM human leukemic cells
T1 sequence (P00374 whole entry): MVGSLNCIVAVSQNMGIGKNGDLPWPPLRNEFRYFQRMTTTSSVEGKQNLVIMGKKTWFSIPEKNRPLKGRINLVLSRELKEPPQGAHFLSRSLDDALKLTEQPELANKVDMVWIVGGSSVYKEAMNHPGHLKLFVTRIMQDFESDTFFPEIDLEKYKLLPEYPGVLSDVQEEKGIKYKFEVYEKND

human recombinant TS = human recombinant TS (Homo sapiens, UniProt P04818); assay: Inhibition of human recombinant TS; type: biochemical; conditions: Table 17; read-out: Human REC TS IC50
Chain of human recombinant TS (P04818 whole entry): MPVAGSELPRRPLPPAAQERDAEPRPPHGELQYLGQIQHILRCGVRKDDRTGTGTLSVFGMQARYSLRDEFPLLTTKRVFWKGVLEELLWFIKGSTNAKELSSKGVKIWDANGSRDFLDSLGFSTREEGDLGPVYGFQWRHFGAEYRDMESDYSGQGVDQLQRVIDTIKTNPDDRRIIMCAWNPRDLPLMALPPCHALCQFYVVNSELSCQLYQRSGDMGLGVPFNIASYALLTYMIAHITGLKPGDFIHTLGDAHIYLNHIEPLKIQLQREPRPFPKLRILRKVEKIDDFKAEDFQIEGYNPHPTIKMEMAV

CCRF-CEM cells = assay: Growth inhibition of CCRF-CEM human leukemia cells, continuous exposure; type: cell-based
R30dm cells = assay: Growth inhibition of R30dm subline (decreased polyglutamate synthase); type: cell-based; conditions: Homo sapiens
A253 = assay: Growth inhibition of A253 human squamous carcinoma cell line; type: cell-based; conditions: Table 19, continuous exposure (0 to 120 hours)
Protocol: The performance of these compounds was evaluated against MTX.

[1] = biological target: T2, CCRF-CEM human leukemia cell folylpolyglutamate synthetase (Homo sapiens, UniProt Q05932); assay: Substrate activity for CCRF-CEM folylpolyglutamate synthetase; type: biochemical; conditions: Table 18
T2 construct: substrates for human leukemia cell CCRF-CEM folylpolyglutamate synthetase; endogenous in cells; host or cells: CCRF-CEM human leukemia cells
T2 sequence (Q05932 43-587): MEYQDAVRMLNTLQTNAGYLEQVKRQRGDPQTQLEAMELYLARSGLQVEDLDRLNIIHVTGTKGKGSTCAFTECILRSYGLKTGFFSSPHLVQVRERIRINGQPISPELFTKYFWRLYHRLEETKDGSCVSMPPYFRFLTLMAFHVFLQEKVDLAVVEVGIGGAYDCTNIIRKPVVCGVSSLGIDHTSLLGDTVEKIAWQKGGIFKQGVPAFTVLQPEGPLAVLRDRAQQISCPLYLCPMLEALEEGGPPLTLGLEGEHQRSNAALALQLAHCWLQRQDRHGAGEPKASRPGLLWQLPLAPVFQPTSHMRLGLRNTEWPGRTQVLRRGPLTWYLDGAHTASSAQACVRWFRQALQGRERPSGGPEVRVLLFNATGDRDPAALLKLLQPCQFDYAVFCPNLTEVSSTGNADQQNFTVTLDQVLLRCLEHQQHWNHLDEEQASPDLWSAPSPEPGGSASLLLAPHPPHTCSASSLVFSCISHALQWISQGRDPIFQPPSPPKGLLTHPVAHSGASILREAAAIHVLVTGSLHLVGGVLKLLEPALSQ
Protocol: (§1) Aminopterin is a classical 2,4-diamino antifolate substrate.
(§2) Compounds 33 and 34 were also evaluated for their substrate activity in CCRF-CEM human leukemia folylpolyglutamate synthetase; the compounds were compared against aminopterin.

FaDu cells = assay: Protection of FaDu cells from growth inhibition by hypoxanthine, thymidine, leucovorin; type: cell-based, human
Protocol: Compound 113-161 was also tested for its ability to inhibit the growth of FaDu human squamous cell carcinoma cell lines. Performance was tested against MTX using hypoxanthine (Hx) and Thymidine (TdR).
Protection after 120 hours with di-LV was also determined. All of the tested compounds reversed inhibition with leucovorin.

Pc DHFR [2] = biological target: T3, Pc DHFR (Pneumocystis carinii, UniProt P16184); type: biochemical
T3 sequence (P16184 1-206): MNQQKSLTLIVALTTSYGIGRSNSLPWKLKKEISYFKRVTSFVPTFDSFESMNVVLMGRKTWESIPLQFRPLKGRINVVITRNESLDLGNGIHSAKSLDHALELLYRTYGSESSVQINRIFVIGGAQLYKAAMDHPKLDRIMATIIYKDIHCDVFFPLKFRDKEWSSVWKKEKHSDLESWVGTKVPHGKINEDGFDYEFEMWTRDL
Protocol: (§3) The selectivity ratio is a measure of the selectivity of a compound for Pc DHFR or Tg DHFR and is expressed as the IC50 value of the DHFR from rate liver (RL) divided by the IC50 value of either the Pc DHFR or the Tg DHFR, depending on which organism the compounds are being tested against. For example, the selectivity ratio of a compound is calculated by the following formula: [formula]

Tg DHFR = biological target: T4, Tg DHFR (Toxoplasma gondii, UniProt Q07422); assay: biochemical; type: biochemical
T4 sequence (Q07422 1-610): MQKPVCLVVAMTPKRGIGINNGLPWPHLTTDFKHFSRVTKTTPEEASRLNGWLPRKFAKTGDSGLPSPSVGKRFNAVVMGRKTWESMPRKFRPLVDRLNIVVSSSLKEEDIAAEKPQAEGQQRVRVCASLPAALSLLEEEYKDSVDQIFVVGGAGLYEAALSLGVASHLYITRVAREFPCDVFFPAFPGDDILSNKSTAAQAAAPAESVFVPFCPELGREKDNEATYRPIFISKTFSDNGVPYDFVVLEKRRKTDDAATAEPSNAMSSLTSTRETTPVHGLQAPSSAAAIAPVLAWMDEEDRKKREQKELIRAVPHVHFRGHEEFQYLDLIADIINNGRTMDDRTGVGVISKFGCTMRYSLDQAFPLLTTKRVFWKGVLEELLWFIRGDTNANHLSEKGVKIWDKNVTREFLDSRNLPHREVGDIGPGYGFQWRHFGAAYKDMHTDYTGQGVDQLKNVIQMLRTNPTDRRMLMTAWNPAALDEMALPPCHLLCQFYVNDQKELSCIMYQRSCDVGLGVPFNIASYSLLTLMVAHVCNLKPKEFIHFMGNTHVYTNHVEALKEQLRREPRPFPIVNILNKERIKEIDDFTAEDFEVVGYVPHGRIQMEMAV
Protocol: as §3

RL DHFR = biological target: T5, RL DHFR (Rattus norvegicus, UniProt Q920D2); assay: Inhibition of DHFR from rat liver; type: biochemical; conditions: Table 25; read-out: Inhibitor Concentrations (IC50) rlDHFR
T5 construct: Toxoplasmosis gondii (Tg) and rat liver (RL); from tissue; host or cells: rat liver
T5 sequence (Q920D2 1-187): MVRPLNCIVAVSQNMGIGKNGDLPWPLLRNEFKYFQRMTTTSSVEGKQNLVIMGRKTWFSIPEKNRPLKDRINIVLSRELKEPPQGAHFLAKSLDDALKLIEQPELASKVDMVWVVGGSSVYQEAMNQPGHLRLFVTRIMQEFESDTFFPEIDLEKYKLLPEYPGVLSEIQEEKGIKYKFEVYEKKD
Protocol: as §3

Pc DHFR [3] = biological target: T3, Pc DHFR; assay: biochemical
L. casei TS = L. casei TS (Lacticaseibacillus casei, UniProt P00469); assay: Inhibition of thymidylate synthase (TS), L. casei; type: biochemical, Lactobacillus casei
Chain of L. casei TS (P00469 whole entry): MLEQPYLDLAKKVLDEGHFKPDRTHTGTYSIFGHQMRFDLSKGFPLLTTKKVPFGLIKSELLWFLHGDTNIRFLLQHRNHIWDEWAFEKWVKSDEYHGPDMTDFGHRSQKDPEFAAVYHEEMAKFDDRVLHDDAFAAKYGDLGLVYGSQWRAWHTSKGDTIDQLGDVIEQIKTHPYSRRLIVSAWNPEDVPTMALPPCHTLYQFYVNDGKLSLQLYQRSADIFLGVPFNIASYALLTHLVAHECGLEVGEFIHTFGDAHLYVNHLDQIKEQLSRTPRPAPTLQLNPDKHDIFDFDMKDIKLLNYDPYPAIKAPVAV

[4] = biological target: E-coli thymidylate synthase (ecTS) (Escherichia coli, UniProt P0A884); assay: Inhibition of E. coli thymidylate synthase; type: biochemical; conditions: b353; read-out: inhibition of TS from E. coli
Chain of E-coli thymidylate synthase (ecTS) (P0A884 whole entry): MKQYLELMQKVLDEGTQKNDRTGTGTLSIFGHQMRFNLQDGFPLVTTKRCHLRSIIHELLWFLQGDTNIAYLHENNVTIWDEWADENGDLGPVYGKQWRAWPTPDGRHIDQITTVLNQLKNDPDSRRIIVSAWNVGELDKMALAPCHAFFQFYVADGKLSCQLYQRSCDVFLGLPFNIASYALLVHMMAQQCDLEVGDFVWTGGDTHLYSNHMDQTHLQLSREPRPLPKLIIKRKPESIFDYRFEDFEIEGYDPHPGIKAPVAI
Protocol: All of the compounds were tested against human cells, L. casei, E. coli, and S. faecium.

TS from P. carinii = TS from P. carinii (Pneumocystis carinii, UniProt P13100); assay: Inhibition of P. carinii TS; type: biochemical; conditions: b353
Chain of TS from P. carinii (P13100 whole entry): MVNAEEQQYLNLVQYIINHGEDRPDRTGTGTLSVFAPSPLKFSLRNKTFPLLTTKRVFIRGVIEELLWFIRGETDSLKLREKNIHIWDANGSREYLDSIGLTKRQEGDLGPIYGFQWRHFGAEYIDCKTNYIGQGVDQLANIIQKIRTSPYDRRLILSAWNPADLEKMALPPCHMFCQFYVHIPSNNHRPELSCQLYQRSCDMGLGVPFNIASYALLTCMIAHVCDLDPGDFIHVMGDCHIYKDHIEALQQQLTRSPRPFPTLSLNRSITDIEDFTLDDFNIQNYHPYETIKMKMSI

R1 cells = assay: Growth inhibition of R1 subline (increased DHFR); type: cell-based; conditions: Homo sapiens
R2 cells = assay: Growth inhibition of R2 subline (MTX-transport deficient); type: cell-based; conditions: Homo sapiens
[5] = substrate: Nc1nc(N)c2c(CCc3ccc(C(=O)N[C@@H](CCC(=O)O)C(=O)O)cc3)coc2n1; assay: Substrate activity for CCRF-CEM folylpolyglutamate synthetase; type: biochemical, human; conditions: other: Table 18; substrate for FPGS
Protocol: as §1, §2

[6] = substrate: Nc1nc(N)c2nc(CNc3ccc(C(=O)N[C@@H](CCC(=O)O)C(=O)O)cc3)cnc2n1; assay: as above; type: biochemical, human; conditions: substrate for FPGS
Protocol: as §1, §2

[7] = Table 15, continuous (120 hours) exposure, read-out: Growth inhibition EC50, FaDu
[8] = Table 19, continuous exposure (0 to 120 hours), read-out: Growth inhibition EC50, CCRF-CEM
[9] = read-out: Growth inhibition EC50

Chain of L. casei DHFR (P00381 whole entry): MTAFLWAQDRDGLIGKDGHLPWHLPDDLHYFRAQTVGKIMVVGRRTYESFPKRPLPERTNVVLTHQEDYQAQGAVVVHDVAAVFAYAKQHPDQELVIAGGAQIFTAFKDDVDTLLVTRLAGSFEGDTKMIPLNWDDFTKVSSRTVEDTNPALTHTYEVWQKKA

Molecule `CN(Cc1ccc(S(=O)(=O)N2CCOCC2)cc1)c1ccc2c3c(cccc13)C(=N)N2` [AG331] has an EC50 (FaDu; [7]) of 1000 ± 100 nM.

With `Nc1nc(N)c2c(CCc3ccc(C(=O)N[C@@H](CCC(=O)O)C(=O)O)cc3)coc2n1` [Compound 33, N-[4-[2-(2,4-diaminofuro[2,3-d]pyrimidin-5-yl)ethyl]-benzoyl]-L-glutamic acid] the IC50 (L. casei DHFR; Table 17, read-out: L. casei DHFR IC50) was 100 nM, the IC50 (CCRF-CEM DHFR) was 250 nM and the IC50 (human recombinant TS) was 220000 nM. The EC50 (CCRF-CEM cells; [8]) was 290 nM, the EC50 (R30dm cells; Table 19, continuous exposure (0 to 120 hours), read-out: Growth inhibition EC50, R30DM) was 4250 nM and the EC50 (A253) was 540 ± 90 nM. The EC50 (FaDu; Homo sapiens, FaDu, Table 19, continuous exposure (0 to 120 hours), read-out: Growth inhibition EC50, FaDu) was 18 ± 20 nM and the “Vmax(rel)” value [1] was 0.65 ± 0.01.

`Nc1nc(N)c2c(CNCc3ccc(C(=O)N[C@@H](CCC(=O)O)C(=O)O)cc3)coc2n1` [Compound 34] showed an IC50 (CCRF-CEM DHFR) of 30500 nM, an IC50 (human recombinant TS) of 63000 nM and an EC50 (CCRF-CEM cells; [8]) of 48000 nM. For the same molecule, the “Vmax(rel)” value [1] was 0.6.

For `Cc1nc(N)nc2[nH]cc(CCc3ccc(C(=O)N[C@@H](CCC(=O)O)C(=O)O)cc3)c12` [Compound 113-161], the “protection study with hypoxanthine (Hx) and thymidine (TdR)” value (FaDu cells) was “almost completely reversed the TS inhibition”.

For `Nc1nc(N)c2c(COc3ccc4ccccc4c3)coc2n1` [Compound 164, 2,4-Diamino-5-[(2-naphthoxy)methyl]furo[2,3-d]pyrimidine], the Selectivity ratio rl/pc (Pc DHFR [2]; IC50 rlDHFR/IC50 pcDHFR) was 4.31, the “Selectivity Ratio RL/Pc” value (Pc DHFR [2]; Table 16) was 4.31 and the IC50 (Tg DHFR; Table 16, read-out: Tg DHFR IC50) was > 42000 nM. The IC50 (Tg DHFR; Table 25, read-out: Inhibitor Concentrations (IC50) tgDHFR) was > 42000 nM, the IC50 (RL DHFR) was 60300 nM and the IC50 (Pc DHFR [3]; Table 16, read-out: Pc DHFR IC50) was 14000 nM. It also gave an IC50 (Pc DHFR [3]; Table 25, read-out: Inhibitor Concentrations (IC50) pcDHFR) of 14000 nM.

With `Nc1nc2[nH]cc(CNc3ccc(C(=O)N[C@@H](CCC(=O)O)C(=O)O)cc3)c2c(=O)[nH]1` [Compound 407] the IC50 (L. casei DHFR) was 6900 nM, the IC50 (L. casei TS) was 46000 nM and the IC50 [4] was > 12000 nM. The IC50 (TS from P. carinii) was 5800 nM, the EC50 (CCRF-CEM cells; Table 23, continuous exposure, read-out: Growth inhibition EC50, CEM (sensitive)) was 79 nM and the EC50 (R30dm cells; Table 23, continuous exposure, read-out: Growth inhibition EC50, R30dm (decreased FPGS)) was 120 ± 10 nM. It also gave an EC50 (R1 cells; Table 23, continuous exposure, read-out: Growth inhibition EC50, R1 (↑ DHFR)) of 200 ± 20 nM and an EC50 (R2 cells; Table 23, continuous exposure, read-out: Growth inhibition EC50, R2 (↓ transport)) of 310 ± 30 nM.

`CN(Cc1cnc2nc(N)nc(N)c2n1)c1ccc(C(=O)N[C@@H](CCC(=O)O)C(=O)O)cc1` [MTX, methotrexate, reference compound] was tested, and the EC50 (R1 cells; [9]) was 675 ± 35 nM, the EC50 (R1 cells; read-out: Growth inhibition EC50, R1) was 595 ± 5 nM and the EC50 (R1 cells; read-out: Growth inhibition EC50, R1 (↑ DHFR)) was 6445 ± 55 nM. It also gave an EC50 (R2 cells; [9]) of 1600 ± 100 nM, an EC50 (R2 cells; read-out: Growth inhibition EC50, R2) of 3100 ± 100 nM and an EC50 (R2 cells; read-out: Growth inhibition EC50, R2 (↓ transport)) of 2350 ± 550 nM. The EC50 (FaDu; Homo sapiens, FaDu, 120 h, read-out: Growth inhibition EC50, FaDu) was 31 ± 2 nM, the EC50 (FaDu; Homo sapiens, FaDu, read-out: Growth inhibition EC50) was 11.3 ± 1.8 nM and the EC50 (FaDu; Homo sapiens, FaDu, read-out: Growth inhibition EC50, FaDu) was 17 ± 2 nM.

Molecule `C#CCN(Cc1ccc2nc(N)[nH]c(=O)c2c1)c1ccc(C(=O)N[C@@H](CCC(=O)O)C(=O)O)cc1` [PDDF] has an EC50 (FaDu; [7]) of 1700 ± 200 nM.

B1: CCRF-CEM human leukemia cell folylpolyglutamate synthetase (Homo sapiens) (protein)
chain: T2 sequence (Q05932 43-587)
notes: substrates for human leukemia cell CCRF-CEM folylpolyglutamate synthetase; endogenous in cells; host or cells: CCRF-CEM human leukemia cells
Work on B1 yielded a Km [5] of 8.5 ± 2.1 µM, a Km ([6]; other: Table 10) of 4.3 ± 0.2 µM and a Km ([6]; other: Table 18) of 4.8 ± 0.7 µM.

— patent US6962920B2, “Pyrimidine derivatives and methods of making and using these derivatives” (Duquesne University of the Holy Ghost, priority 1992, dated 2005)
